Experimental data as given in ChEMBL document CHEMBL1909046, “DrugMatrix in vitro pharmacology data”.

Key:
[1] = target: Mitogen-activated protein kinase 1 (Homo sapiens, UniProt P28482); experiment: DRUGMATRIX: Protein Serine/Threonine Kinase, ERK2 enzyme inhibition (substrate: Myelin Basic Protein); set-up: species or system Escherichia coli; conditions: Not Active = under 50% inhibition at 10 µM
[2] = target: T1, Muscarinic acetylcholine receptor M5 (Homo sapiens, UniProt P08912); assay type: cell membranes, CHO-K1, Membrane; conditions: cho-k1; further: in other assays of this panel Not Active means under 50% inhibition at 10 µM
T1 sequence (P08912 whole entry): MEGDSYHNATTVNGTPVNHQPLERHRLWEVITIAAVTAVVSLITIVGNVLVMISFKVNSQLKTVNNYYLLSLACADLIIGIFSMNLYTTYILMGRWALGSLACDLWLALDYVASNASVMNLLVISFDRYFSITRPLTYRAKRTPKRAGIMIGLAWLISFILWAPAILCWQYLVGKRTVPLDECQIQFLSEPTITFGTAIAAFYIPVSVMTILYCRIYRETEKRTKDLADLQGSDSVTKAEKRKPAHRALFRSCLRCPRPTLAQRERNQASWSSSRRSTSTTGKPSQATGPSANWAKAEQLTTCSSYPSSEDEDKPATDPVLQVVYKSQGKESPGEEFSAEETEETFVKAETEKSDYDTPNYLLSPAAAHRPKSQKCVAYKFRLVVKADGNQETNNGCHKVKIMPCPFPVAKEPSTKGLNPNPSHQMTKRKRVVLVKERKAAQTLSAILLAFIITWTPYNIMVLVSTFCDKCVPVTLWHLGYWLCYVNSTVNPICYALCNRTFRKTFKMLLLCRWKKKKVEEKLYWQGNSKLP

Estrogen receptor = target: T2, Estrogen receptor (Homo sapiens, UniProt P03372); conditions: sf9; further: in other assays of this panel Not Active means under 50% inhibition at 10 µM
T2 sequence (P03372 whole entry): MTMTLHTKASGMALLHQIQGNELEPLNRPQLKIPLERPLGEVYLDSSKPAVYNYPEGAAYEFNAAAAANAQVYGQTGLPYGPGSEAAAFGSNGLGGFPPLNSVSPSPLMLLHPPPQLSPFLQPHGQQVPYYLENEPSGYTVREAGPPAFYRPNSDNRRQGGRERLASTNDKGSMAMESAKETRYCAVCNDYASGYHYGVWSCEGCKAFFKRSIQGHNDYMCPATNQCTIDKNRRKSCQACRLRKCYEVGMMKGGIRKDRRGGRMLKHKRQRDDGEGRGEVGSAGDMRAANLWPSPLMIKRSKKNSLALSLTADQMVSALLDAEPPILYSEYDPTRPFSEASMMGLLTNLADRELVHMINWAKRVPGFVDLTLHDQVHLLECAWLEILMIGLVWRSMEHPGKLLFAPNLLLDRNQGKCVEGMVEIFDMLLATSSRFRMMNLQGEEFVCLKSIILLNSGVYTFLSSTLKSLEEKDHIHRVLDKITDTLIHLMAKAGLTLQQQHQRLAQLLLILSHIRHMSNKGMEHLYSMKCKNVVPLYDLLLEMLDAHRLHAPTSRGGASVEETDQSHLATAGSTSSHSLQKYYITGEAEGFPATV

[3] = target: T3, Alpha-1A adrenergic receptor (Rattus norvegicus, UniProt P43140); experiment: DRUGMATRIX: Alpha-1A adrenergic receptor radioligand binding (ligand: prazosin); assay type: cell membranes, Wistar, Submaxillary gland, Membrane; conditions: Not Active = under 50% inhibition at 10 µM
T3 sequence (P43140 whole entry): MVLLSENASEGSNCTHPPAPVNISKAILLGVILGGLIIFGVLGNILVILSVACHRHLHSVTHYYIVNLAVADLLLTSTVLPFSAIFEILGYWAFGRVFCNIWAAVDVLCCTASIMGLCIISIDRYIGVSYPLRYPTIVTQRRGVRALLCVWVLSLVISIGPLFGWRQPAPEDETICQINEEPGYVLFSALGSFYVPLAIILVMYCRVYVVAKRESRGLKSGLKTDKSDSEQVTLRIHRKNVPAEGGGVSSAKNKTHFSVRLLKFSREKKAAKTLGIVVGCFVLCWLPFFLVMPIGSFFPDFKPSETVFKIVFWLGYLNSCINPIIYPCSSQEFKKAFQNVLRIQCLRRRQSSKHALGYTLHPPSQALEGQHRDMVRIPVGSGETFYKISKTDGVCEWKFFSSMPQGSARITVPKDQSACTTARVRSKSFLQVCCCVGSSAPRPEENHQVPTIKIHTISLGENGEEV

[4] = target: T4, Muscarinic acetylcholine receptor M2 (Homo sapiens, UniProt P08172); assay type: cell membranes, CHO-K1, Membrane; conditions: cho-k1; further: in other assays of this panel Not Active means under 50% inhibition at 10 µM
T4 sequence (P08172 whole entry): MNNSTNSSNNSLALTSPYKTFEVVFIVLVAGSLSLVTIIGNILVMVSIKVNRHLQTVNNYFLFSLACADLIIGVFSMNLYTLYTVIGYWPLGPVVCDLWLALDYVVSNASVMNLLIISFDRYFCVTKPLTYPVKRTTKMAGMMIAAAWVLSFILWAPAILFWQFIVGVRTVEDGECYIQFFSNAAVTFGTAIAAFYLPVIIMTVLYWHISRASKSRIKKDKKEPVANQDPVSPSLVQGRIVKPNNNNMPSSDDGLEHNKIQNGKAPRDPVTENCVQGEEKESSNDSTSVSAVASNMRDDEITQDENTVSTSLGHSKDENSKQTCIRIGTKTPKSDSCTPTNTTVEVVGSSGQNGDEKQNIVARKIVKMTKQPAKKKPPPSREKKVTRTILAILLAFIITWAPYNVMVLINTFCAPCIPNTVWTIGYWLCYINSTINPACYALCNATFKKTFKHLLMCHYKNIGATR

Cytochrome P450 1A2 = target: T5, Cytochrome P450 1A2 (Homo sapiens, UniProt P05177); conditions: bti-tn-5b1-4; further: in other assays of this panel Not Active means under 50% inhibition at 10 µM
T5 sequence (P05177 whole entry): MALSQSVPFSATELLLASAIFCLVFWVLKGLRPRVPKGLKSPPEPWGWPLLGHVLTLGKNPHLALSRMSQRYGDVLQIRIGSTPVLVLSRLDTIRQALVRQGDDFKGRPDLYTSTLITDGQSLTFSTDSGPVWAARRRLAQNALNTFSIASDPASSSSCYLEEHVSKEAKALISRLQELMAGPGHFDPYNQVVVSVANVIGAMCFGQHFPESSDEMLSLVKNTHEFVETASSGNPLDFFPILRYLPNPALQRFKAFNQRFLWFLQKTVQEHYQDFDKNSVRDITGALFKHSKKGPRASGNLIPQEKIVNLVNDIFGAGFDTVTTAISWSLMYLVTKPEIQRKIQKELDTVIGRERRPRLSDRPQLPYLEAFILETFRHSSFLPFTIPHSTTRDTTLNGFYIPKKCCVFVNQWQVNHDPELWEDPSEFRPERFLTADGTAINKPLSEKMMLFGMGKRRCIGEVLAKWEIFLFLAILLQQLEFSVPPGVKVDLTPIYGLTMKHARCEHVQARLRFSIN

Sequence of Mitogen-activated protein kinase 1 (P28482 whole entry): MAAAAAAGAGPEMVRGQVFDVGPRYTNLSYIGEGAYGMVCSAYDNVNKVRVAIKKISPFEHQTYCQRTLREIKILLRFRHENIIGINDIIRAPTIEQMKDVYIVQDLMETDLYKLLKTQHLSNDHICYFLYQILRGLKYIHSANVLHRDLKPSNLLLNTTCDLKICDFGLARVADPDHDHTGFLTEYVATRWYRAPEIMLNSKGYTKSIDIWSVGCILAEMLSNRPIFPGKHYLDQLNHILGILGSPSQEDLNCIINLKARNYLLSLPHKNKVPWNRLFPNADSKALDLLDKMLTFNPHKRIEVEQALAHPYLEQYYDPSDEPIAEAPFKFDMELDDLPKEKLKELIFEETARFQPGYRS

CISPLATIN
Not Active: IC50 [1] | Ki [1] | IC50 [2] | Ki [2] | IC50 (Estrogen receptor) | Ki (Estrogen receptor) | IC50 [3] | Ki [3] | IC50 [4] | Ki [4] | IC50 (Cytochrome P450 1A2) | Ki (Cytochrome P450 1A2)

GOLD SODIUM THIOMALATE
Not Active: IC50 [1] | Ki [1] | IC50 [2] | Ki [2] | IC50 (Estrogen receptor) | Ki (Estrogen receptor) | IC50 [3] | Ki [3] | IC50 [4] | Ki [4] | IC50 (Cytochrome P450 1A2) | Ki (Cytochrome P450 1A2)

OXALIPLATIN
Not Active: IC50 [1] | Ki [1] | IC50 [2] | Ki [2] | IC50 (Estrogen receptor) | Ki (Estrogen receptor) | IC50 [3] | Ki [3] | IC50 [4] | Ki [4] | IC50 (Cytochrome P450 1A2) | Ki (Cytochrome P450 1A2)
